Patent US9718790B2, “Triazine derivative and pharmaceutical composition having an analgesic activity comprising the same” (SHIONOGI & CO., LTD., priority 2010, dated 2017)

molecular target: human P2X3 receptor (Homo sapiens (Human), UniProt P56373); assay: Evaluation of human P2X3 receptor inhibitory activity (Fluo-3 calcium fluorescence, FDSS 3000, ATP stimulation); assay type: cell-based; conditions: C6BU-1 cells stably expressing human P2X3 receptor;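 further: stimulus was 50 nM ATP with fluorescence followed for 3 min, and the response per well was peak post-ATP fluorescence divided by the reading at measurement start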
Sequence (P56373 whole entry): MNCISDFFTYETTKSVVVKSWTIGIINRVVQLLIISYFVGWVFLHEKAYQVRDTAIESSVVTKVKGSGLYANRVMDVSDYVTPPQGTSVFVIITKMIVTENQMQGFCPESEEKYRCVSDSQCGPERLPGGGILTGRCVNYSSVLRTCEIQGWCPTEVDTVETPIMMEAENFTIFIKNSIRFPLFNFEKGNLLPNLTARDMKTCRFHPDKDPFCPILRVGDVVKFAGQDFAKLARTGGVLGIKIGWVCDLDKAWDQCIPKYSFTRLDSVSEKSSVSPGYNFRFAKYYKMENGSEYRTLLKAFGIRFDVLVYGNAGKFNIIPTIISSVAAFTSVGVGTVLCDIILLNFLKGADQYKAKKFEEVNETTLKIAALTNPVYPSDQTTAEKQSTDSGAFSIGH

Going from `Cc1cc(/N=c2\[nH]c(=O)n(Cc3cccn(CCO)c3=O)c(=O)n2Cc2ccc(Cl)cc2)ccc1OC(C)C` [Compound I-0713] to `Cc1cc(/N=c2\[nH]c(=O)n(Cc3cccn(CC(=O)O)c3=O)c(=O)n2Cc2ccc(Cl)cc2)ccc1OC(C)C` [Compound I-0760], the IC50 rises from 16 nM to 37 nM (2.3-fold). The first is the more potent here.

Compared with `Cc1cc(/N=c2\[nH]c(=O)n(Cc3cccnc3OCCOC3CCCCO3)c(=O)n2Cc2ccc(Cl)cc2)ccc1OC(C)C` (centres unmarked) [Compound I-0714], `Cc1cc(/N=c2\[nH]c(=O)n(Cc3cccnc3OCCO)c(=O)n2Cc2ccc(Cl)cc2)ccc1OC(C)C` [Compound I-0715] is 2.3-fold lower in IC50: 30 nM for the first, 13 nM for the second. The second is the more potent here.

First: Cc1cc(/N=c2\[nH]c(=O)n([C@@H]3CN[C@H](C(=O)O)C3)c(=O)n2Cc2ccc(Cl)cc2)ccc1OC(C)C [Compound I-0716]
Second: Cc1cc(/N=c2\[nH]c(=O)n([C@H]3CCOC3=O)c(=O)n2Cc2ccc(Cl)cc2)ccc1OC(C)C [Compound I-0775]
The IC50 of the first is 2.5-fold higher: 102 nM for the first, 41 nM for the second. The second is the more potent here.

Compared with `CCOC(=O)[C@H](CCn1c(=O)[nH]/c(=N\c2ccc(OC(C)C)c(C)c2)n(Cc2ccc(Cl)cc2)c1=O)NC(=O)OC(C)(C)C` [Compound I-0717, (S)-1-(4-chlorobenzyl)-3-(3-t-butoxycarbonylamino-3-ethoxycarbonyl-propyl)-6-(3-mehyl-4-isopropoxyphenylimino)-1,3,5-triazinane-2,4-dion], `Cc1cc(/N=c2\[nH]c(=O)n(CC[C@H](NC(=O)OC(C)(C)C)C(=O)O)c(=O)n2Cc2ccc(Cl)cc2)ccc1OC(C)C` [Compound I-0732, (S)-1-(4-chlorobenzyl)-3-(3-t-butoxycarbonylamino-3-hydroxycarbonylpropyl)-6-(3-mehyl-4-isopropoxyphenylimino)-1,3,5-triazinane-2,4-dion] is 2-fold higher in IC50: 21 nM for the first, 41 nM for the second. The first is the more potent here.

Compared with `CCOC(=O)C1CCC(n2c(=O)[nH]/c(=N\c3ccc(OC(C)C)c(C)c3)n(Cc3ccc(Cl)cc3)c2=O)CC1` (centres unmarked) [Compound I-0718], `C=C(Cn1c(=O)[nH]/c(=N\c2ccc(OC(C)C)c(C)c2)n(Cc2ccc(Cl)cc2)c1=O)C(=O)OCC` [Compound I-0779] is 5.8-fold lower in IC50: 93 nM for the first, 16 nM for the second. The second is the more potent here.

`COC(=O)[C@@H](C)Cn1c(=O)[nH]/c(=N\c2ccc(OCCO)cc2)n(Cc2ccc(Cl)cc2)c1=O` [Compound I-0719] and `COCCOc1ccc(/N=c2\[nH]c(=O)n(C[C@H](C)C(=O)OC)c(=O)n2Cc2ccc(Cl)cc2)cc1` [Compound I-0745] are within 1.5-fold of each other in IC50: 115 nM for the first, 125 nM for the second.

First: CNC(=O)[C@@H](C)Cn1c(=O)[nH]/c(=N\c2ccc(OC(C)C)c(C)c2)n(Cc2ccc(Cl)cc2)c1=O [Compound I-0721]
Second: Cc1cc(/N=c2\[nH]c(=O)n(C[C@H](C)C(=O)NCCO)c(=O)n2Cc2ccc(Cl)cc2)ccc1OC(C)C [Compound I-0723]
The IC50 of the first is 1.8-fold lower: 13 nM for the first, 24 nM for the second.

Going from `Cc1cc(/N=c2\[nH]c(=O)n(C[C@H](O)CO)c(=O)n2Cc2ccc(Cl)cc2)ccc1OC(C)C` [Compound I-0722] to `Cc1cc(/N=c2\[nH]c(=O)n(C[C@H](C)CC(=O)O)c(=O)n2Cc2ccc(Cl)cc2)ccc1OC(C)C` [Compound I-0765], the IC50 rises from 14 nM to 40 nM (2.9-fold).

Going from `COc1ccc(/N=c2\[nH]c(=O)n(C[C@H](C)C(=O)O)c(=O)n2Cc2ccc(Cl)cc2)cc1Cl` [Compound I-0724] to `CCCOc1ccc(/N=c2\[nH]c(=O)n(C[C@H](C)C(=O)O)c(=O)n2Cc2ccc(Cl)cc2)cc1Cl` [Compound I-0747], the IC50 falls from 250 nM to 12 nM (21-fold). The second is the more potent here.

Compared with `Cc1cc(/N=c2\[nH]c(=O)n(Cc3ccc[nH]c3=O)c(=O)n2Cc2ccc(Cl)cc2)ccc1OC(C)C` [Compound I-0725], `COC(=O)Cn1cccc(Cn2c(=O)[nH]/c(=N\c3ccc(OC(C)C)c(C)c3)n(Cc3ccc(Cl)cc3)c2=O)c1=O` [Compound I-0757] is 2.5-fold higher in IC50: 14 nM for the first, 35 nM for the second.

`Cc1cc(/N=c2\[nH]c(=O)n(C[C@H](C)C(=O)NCC(F)(F)F)c(=O)n2Cc2ccc(Cl)cc2)ccc1OC(C)C` [Compound I-0726] and `COC(=O)C[C@@H](C)Cn1c(=O)[nH]/c(=N\c2ccc(OC(C)C)c(C)c2)n(Cc2ccc(Cl)cc2)c1=O` [Compound I-0761] are within 1.5-fold of each other in IC50: 16 nM for the first, 15 nM for the second.

`CC[C@@H](C)Oc1ccc(/N=c2\[nH]c(=O)n(C[C@H](C)C(=O)OC)c(=O)n2Cc2ccc(Cl)cc2)cc1` [Compound I-0727] and `CC[C@H](C)Oc1ccc(/N=c2\[nH]c(=O)n(C[C@H](C)C(=O)OC)c(=O)n2Cc2ccc(Cl)cc2)cc1` [Compound I-0728] are within 1.5-fold of each other in IC50: 12 nM for the first, 14 nM for the second.

`C[C@@H](Cn1c(=O)[nH]/c(=N\c2ccc(OCCO)cc2)n(Cc2ccc(Cl)cc2)c1=O)C(=O)O` [Compound I-0733] and `COCCOc1ccc(/N=c2\[nH]c(=O)n(C[C@H](C)C(=O)O)c(=O)n2Cc2ccc(Cl)cc2)cc1` [Compound I-0748] are within 1.5-fold of each other in IC50: 287 nM for the first, 295 nM for the second.

Going from `CCOC(=O)/C(Cn1c(=O)[nH]/c(=N\c2ccc(OC(C)C)c(F)c2)n(Cc2ccc(Cl)cc2)c1=O)=N/OC` [Compound I-0735, 1-(4-chlorobenzyl)-6-(3-fluoro-4-isopropoxyphenylimino)-3-(2-ethoxycarbonyl-2-methoxyiminoethyl)-1,3,5-triazinane-2,4-dion] to `CO/N=C(\Cn1c(=O)[nH]/c(=N\c2ccc(OC(C)C)c(F)c2)n(Cc2ccc(Cl)cc2)c1=O)C(=O)O` [Compound I-0737, 1-(4-chlorobenzyl)-6-(3-fluoro-4-isopropoxyphenylimino)-3-(2-hydroxycarbonyl-2-methoxyiminoethyl)-1,3,5-triazinane-2,4-dion], the IC50 rises from 7 nM to 140 nM (20-fold).

`Cc1cc(/N=c2\[nH]c(=O)n(CC[C@H](N)C(=O)O)c(=O)n2Cc2ccc(Cl)cc2)ccc1OC(C)C` [Compound I-0736, (S)-1-(4-chlorobenzyl)-3-(3-amino-3-hydroxycarbonylpropyl)-6-(3-mehyl-4-isopropoxyphenylimino)-1,3,5-triazinane-2,4-dion] and `CO/N=C(\Cn1c(=O)[nH]/c(=N\c2ccc(OC(C)C)c(C)c2)n(Cc2ccc(Cl)cc2)c1=O)C(=O)O` [Compound I-0756] are the same in IC50: 131 nM for the first, 131 nM for the second.

Going from `COC(=O)[C@@H](C)Cn1c(=O)[nH]/c(=N\c2ccc(OCC(F)F)c(C)c2)n(Cc2ccc(Cl)cc2)c1=O` [Compound I-0738] to `Cc1cc(/N=c2\[nH]c(=O)n(C[C@H](C)C(=O)O)c(=O)n2Cc2ccc(Cl)cc2)ccc1OCC(F)F` [Compound I-0741], the IC50 rises from 19 nM to 50 nM (2.6-fold). The first is the more potent here.

`CC(C)Oc1ccc(/N=c2\[nH]c(=O)n(CC(=O)N3CCOCC3)c(=O)n2Cc2ccc(Cl)cc2)cc1Cl` [Compound I-0739] and `CC(C)Oc1ccc(/N=c2\[nH]c(=O)n(CC(=O)N3CCNCC3)c(=O)n2Cc2ccc(Cl)cc2)cc1Cl` [Compound I-0742] are within 1.5-fold of each other in IC50: 29 nM for the first, 38 nM for the second.

Going from `CC(C)Oc1ccc(/N=c2\[nH]c(=O)n(CC(=O)N3CCN(C(=O)OC(C)(C)C)CC3)c(=O)n2Cc2ccc(Cl)cc2)cc1Cl` [Compound I-0740] to `CCCOc1ccc(/N=c2\[nH]c(=O)n(C[C@H](C)C(=O)OC)c(=O)n2Cc2ccc(Cl)cc2)cc1Cl` [Compound I-0743], the IC50 falls from 221 nM to 13 nM (17-fold).

Compared with `COC(=O)[C@@H](C)Cn1c(=O)[nH]/c(=N\c2ccc3c(c2)COCO3)n(Cc2ccc(Cl)cc2)c1=O` [Compound I-0744], `C[C@@H](Cn1c(=O)[nH]/c(=N\c2ccc3c(c2)COCO3)n(Cc2ccc(Cl)cc2)c1=O)C(=O)O` [Compound I-0746] is 2.6-fold higher in IC50: 53 nM for the first, 140 nM for the second. The first is the more potent here.

`COC(=O)[C@@H](C)Cn1c(=O)[nH]/c(=N\c2ccc(OCC(C)C)cc2)n(Cc2ccc(Cl)cc2)c1=O` [Compound I-0749] and `CC(C)COc1ccc(/N=c2\[nH]c(=O)n(C[C@H](C)C(=O)O)c(=O)n2Cc2ccc(Cl)cc2)cc1` [Compound I-0750] are within 1.5-fold of each other in IC50: 27 nM for the first, 22 nM for the second.

First: CC[C@@H](C)Oc1ccc(/N=c2\[nH]c(=O)n(C[C@H](C)C(=O)O)c(=O)n2Cc2ccc(Cl)cc2)cc1 [Compound I-0754]
Second: CC[C@H](C)Oc1ccc(/N=c2\[nH]c(=O)n(C[C@H](C)C(=O)O)c(=O)n2Cc2ccc(Cl)cc2)cc1 [Compound I-0755]
The IC50 of the first is 1.5-fold lower: 16 nM for the first, 24 nM for the second. The first is the more potent here.

Going from `CC(C)Oc1ccc(/N=c2\[nH]c(=O)n(CCC(=O)NC#N)c(=O)n2Cc2ccc(Cl)cc2)cc1F` [Compound I-0758, 1-(4-chlorobenzyl)-6-(3-fluoro-4-isopropoxyphenylimino)-3-[2-(cyanocarbamoyl)ethyl]-1,3,5-triazinane-2,4-dion] to `COC(=O)[C@@H](C)Cn1c(=O)[nH]/c(=N\c2ccc(CC#N)c(Cl)c2)n(Cc2ccc(Cl)cc2)c1=O` [Compound I-0766], the IC50 rises from 19 nM to 438 nM (23-fold).

Compared with `Cc1cc(/N=c2\[nH]c(=O)n(-c3ccc(C(=O)O)cc3)c(=O)n2Cc2ccc(Cl)cc2)ccc1OC(C)C` [Compound I-0762], `COC(=O)c1cccc(Cn2c(=O)[nH]/c(=N\c3ccc(OC(C)C)c(C)c3)n(Cc3ccc(Cl)cc3)c2=O)n1` [Compound I-0781] is 9.1-fold lower in IC50: 82 nM for the first, 9 nM for the second.

Going from `COC(=O)[C@@H](C)Cn1c(=O)[nH]/c(=N\c2ccc(OC(C)C)c(Cl)c2)n(Cc2ccccc2)c1=O` [Compound I-0763] to `COC(=O)[C@@H](C)Cn1c(=O)[nH]/c(=N\c2ccc(OC(C)C)c(C)c2)n(Cc2ccccc2)c1=O` [Compound I-0764], the IC50 rises from 80 nM to 254 nM (3.2-fold).

Going from `COCCOc1ccc(/N=c2\[nH]c(=O)n(C[C@H](C)C(=O)OC)c(=O)n2Cc2ccc(Cl)cc2)cc1Cl` [Compound I-0767] to `COC(=O)[C@@H](C)Cn1c(=O)[nH]/c(=N\c2ccc3c(c2)CCC3)n(Cc2ccc(Cl)cc2)c1=O` [Compound I-0769], the IC50 rises from 88 nM to 207 nM (2.4-fold). The first is the more potent here.

Going from `COC(=O)[C@@H](C)Cn1c(=O)[nH]/c(=N\c2ccc3c(c2)CCO3)n(Cc2ccc(Cl)cc2)c1=O` [Compound I-0770] to `C[C@@H](Cn1c(=O)[nH]/c(=N\c2ccc3c(c2)CCO3)n(Cc2ccc(Cl)cc2)c1=O)C(=O)O` [Compound I-0773], the IC50 rises from 405 nM to 790 nM (2-fold).

First: C[C@@H](Cn1c(=O)[nH]/c(=N\c2ccc3c(c2)CCC3)n(Cc2ccc(Cl)cc2)c1=O)C(=O)O [Compound I-0772]
Second: COC(=O)[C@@H](C)Cn1c(=O)[nH]/c(=N\c2cccc(C(C)C)c2)n(Cc2ccc(Cl)cc2)c1=O [Compound I-0777]
The IC50 of the first is 4.1-fold higher: 477 nM for the first, 116 nM for the second.

First: CCOC(=O)C(CNc1ccc(OC(C)C)c(C)c1)Cn1c(=O)[nH]/c(=N\c2ccc(OC(C)C)c(C)c2)n(Cc2ccc(Cl)cc2)c1=O (centres unmarked) [Compound I-0778]
Second: CC[C@@H](CC(=O)OC)n1c(=O)[nH]/c(=N\c2ccc(OC(C)C)c(C)c2)n(Cc2ccc(Cl)cc2)c1=O [Compound I-0782]
The IC50 of the first is 2.3-fold lower: 84 nM for the first, 192 nM for the second. The first is the more potent here.
